# Results reported in PMC10902181 (Journal of neurochemistry, 2023).
# pIC50: −log10 of the molar value. Read-outs that look alike come from different tables or passages of the source. Marks after values point to notes of the source that are not given here.
# What was measured:
# [1] = target: T1, GluN1/GluN2A-L611Q (Homo sapiens, UniProt Q05586+Q12879, L611Q); test: Current-voltage curves; details: 2A-L611Q
# [2] = target: WT GluN1/GluN2A (Homo sapiens, UniProt Q05586+Q12879); test: TEVC current recordings from Xenopus oocytes, channel blocker inhibition; format: cell-based; details: for pIC50: IC50, WT GluN1/WT 2A, holding −40 mV; for % inhibition: WT GluN1/WT 2A, 100 μM blocker, −40 mV
# [3] = target: GluN1/GluN2B-N615K (Homo sapiens, UniProt Q05586+Q13224, N615K); test: as above; format: cell-based; details: for % inhibition: 100 μM blocker, −40 mV
# [4] = target: GluN2B-N616K-containing NMDARs (Homo sapiens, UniProt Q05586+Q13224, N616K); test: as above; format: cell-based; details: for % inhibition: 2B-N616K, 100 μM blocker, −40 mV; for pIC50: IC50, 2B-N616K, holding −40 mV
# [5] = target: WT GluN1/GluN2B (Homo sapiens, UniProt Q05586+Q13224); test: as above; format: cell-based; details: for pIC50: IC50, WT GluN1/WT 2B, holding −40 mV; for % inhibition: WT GluN1/WT 2B, 100 μM blocker, −40 mV
# [6] = target: T1, GluN1/GluN2A-L611Q; test: as above; format: cell-based; details: for % inhibition: 2A-L611Q, 100 μM blocker, −40 mV; for pIC50: IC50, 2A-L611Q, holding −40 mV
# [7] = target: GluN2A-N615K-containing NMDARs (Homo sapiens, UniProt Q05586+Q12879, N615K); test: as above; format: cell-based; details: for % inhibition: 2A-N615K, 100 μM blocker, −40 mV; for pIC50: IC50, 2A-N615K, holding −40 mV
# [8] = target: GluN2B-V620M-containing NMDARs (Homo sapiens, UniProt Q05586+Q13224, V620M); test: as above; format: cell-based; details: for % inhibition: 2B-V620M, 100 μM blocker, −40 mV; for pIC50: IC50, 2B-V620M, holding −40 mV
# [9] = target: GluN2B-V618G-containing NMDARs (Homo sapiens, UniProt Q05586+Q13224, V618G); test: as above; format: cell-based; details: for % inhibition: 2B-V618G, 100 μM blocker, −40 mV; for pIC50: IC50, 2B-V618G, holding −40 mV
# [10] = target: GluN1/GluN2B-N615I (Homo sapiens, UniProt Q05586+Q13224, N615I); test: as above; format: cell-based; details: for % inhibition: 2B-N615I, 100 μM blocker, −40 mV; for pIC50: IC50, 2B-N615I, holding −40 mV
# [11] = target: GluN2A-N614S-containing NMDARs (Homo sapiens, UniProt Q05586+Q12879, N614S); test: as above; format: cell-based; details: for % inhibition: 2A-N614S, 100 μM blocker, −40 mV; for pIC50: IC50, 2A-N614S, holding −40 mV
# [12] = target: GluN2B-G611V-containing NMDARs (Homo sapiens, UniProt Q05586+Q13224, G611V); test: as above; format: cell-based; details: for % inhibition: 2B-G611V, 100 μM blocker, −40 mV; for pIC50: IC50, 2B-G611V, holding −40 mV
# [13] = target: GluN1-G620R/GluN2A (Homo sapiens, UniProt Q05586+Q12879, G620R); test: as above; format: cell-based; details: for % inhibition: 1-G620R/2A, 100 μM blocker, −40 mV; for pIC50: IC50, 1-G620R/2A, holding −40 mV
# [14] = target: GluN2B-W607C-containing NMDARs (Homo sapiens, UniProt Q05586+Q13224, W607C); test: as above; format: cell-based; details: for % inhibition: 2B-W607C, 100 μM blocker, −40 mV; for pIC50: IC50, 2B-W607C, holding −40 mV
smiles,measurement,setting,value
CNC1(c2ccccc2Cl)CCCCC1=O (stereo not shown) [ketamine],"z δ (apparent, combined block)",[1]; 1 mM Mg^2+ + 0.3 μM ketamine,1.14
same,"z δ (apparent, combined block)",[1]; 1 mM Mg^2+ + 1.0 μM ketamine,1.02
same,"z δ (apparent, combined block)",[1]; 1 mM Mg^2+ + 3.0 μM ketamine,1.01
same,"z δ (apparent, combined block)",[1]; 1 mM Mg^2+ + 10 μM ketamine,0.84
same,"z δ (apparent, combined block)","[1]; 1 mM Mg^2+ + 30 μM ketamine, zδ was fixed to 0.80 for this condition",0.80 ^*
same,"z δ (apparent, combined block)",[1]; 1 mM Mg^2+ + 100 μM ketamine,0.80
same,pIC50,[2]; w/ 1 mM Mg^2+,4.77
same,pIC50,[2]; w/o Mg^2+,5.26
same,% inhibition,[2]; w/ 1 mM Mg^2+,79 ± 2.4% (24)
same,% inhibition,[2]; w/o Mg^2+,92 ± 1.1% (25)
same,pIC50,[3],< 4.00
same,% inhibition,"[3]; 2B-N615K, w/ 1 mM Mg^2+",6.5 ± 1.5% (16) ^*^¥
same,% inhibition,"[3]; 2B-N615K, w/o Mg^2+",22 ± 3.8 (15)^¥ %
same,pIC50,"[3]; 2B-N615K, w/ 1 mM Mg^2+, holding −40 mV",< 4.00
same,reduced potency compared to the WT receptors,"[3]; GluN2B-N615K, presence of 1 mM Mg^2+",over 5.9 fold
same,% inhibition,[4]; w/ 1 mM Mg^2+,93 ± 1.3% (13)^¥
same,% inhibition,[4]; w/o Mg^2+,91 ± 2.7% (8)
same,enhanced potency in comparison to WT NMDARs,"[4]; GluN2B-N616K, absence of Mg^2+",1.8 fold
same,pIC50,[4]; w/ 1 mM Mg^2+,5.60
same,pIC50,[4]; w/o Mg^2+,5.64
same,pIC50,[5]; w/ 1 mM Mg^2+,4.85
same,pIC50,[5]; w/o Mg^2+,5.38
same,% inhibition,[5]; w/ 1 mM Mg^2+,86 ± 1.0% (12)
same,% inhibition,[5]; w/o Mg^2+,95 ± 1.0% (13)
same,% inhibition,[6]; w/ 1 mM Mg^2+,93 ± 2.1% (10) ^*^¥
same,% inhibition,[6]; w/o Mg^2+,87 ± 1.5% (17)
same,increased potency in 1 mM Mg^2+ compared to the same variant in the absence of Mg^2+,[6]; GluN2A-L611Q,1.8 fold
same,pIC50,[6]; w/ 1 mM Mg^2+,5.40
same,pIC50,[6]; w/o Mg^2+,5.14
same,% inhibition,[7]; w/ 1 mM Mg^2+,92 ± 3.3% (7)^¥
same,% inhibition,[7]; w/o Mg^2+,93 ± 1.5% (18)
same,pIC50,[7]; w/ 1 mM Mg^2+,5.80
same,pIC50,[7]; w/o Mg^2+,5.37
same,increased potency in 1 mM Mg^2+ compared to the same variant in the absence of Mg^2+,[7]; printed GluN2A-N616K,2.7 fold
same,% inhibition,[8]; w/ 1 mM Mg^2+,91 ± 2.8% (8)
same,% inhibition,[8]; w/o Mg^2+,93 ± 1.0% (10)
same,reduced potency in 1 mM Mg^2+ vs absence of Mg^2+,[8]; GluN2B-V620M,2.1 fold
same,pIC50,[8]; w/ 1 mM Mg^2+,5.15
same,pIC50,[8]; w/o Mg^2+,5.47
same,% inhibition,[9]; w/ 1 mM Mg^2+,81 ± 2.1% (8)
same,% inhibition,[9]; w/o Mg^2+,77 ± 3.0% (8)^¥
same,reduced potency (less potent) vs WT,"[9]; GluN2B-V618G, absence of Mg^2+",~ 3 fold
same,pIC50,[9]; w/ 1 mM Mg^2+,4.62
same,pIC50,[9]; w/o Mg^2+,4.74
same,% inhibition,[10]; w/ 1 mM Mg^2+,94 ± 1.8% (8)^¥
same,% inhibition,[10]; w/o Mg^2+,89 ± 1.9 (10) %
same,enhanced potency in comparison to WT NMDARs,"[10]; GluN2B-N615I, absence of Mg^2+",8.1 fold
same,pIC50,[10]; w/ 1 mM Mg^2+,6.12
same,pIC50,[10]; w/o Mg^2+,6.29
same,% inhibition,[11]; w/ 1 mM Mg^2+,77 ± 4.1% (9)
same,% inhibition,[11]; w/o Mg^2+,78 ± 3.0% (12)^¥
same,reduced potency (less potent) vs WT,"[11]; GluN2A-N614S, absence of Mg^2+",~ 3 fold
same,pIC50,[11]; w/ 1 mM Mg^2+,4.51
same,pIC50,[11]; w/o Mg^2+,4.54
same,% inhibition,[12]; w/ 1 mM Mg^2+,88 ± 1.6% (16)
same,% inhibition,[12]; w/o Mg^2+,92 ± 2.6% (7)
same,reduced potency in 1 mM Mg^2+ vs absence of Mg^2+,[12]; GluN2B-G611V,2.6 fold
same,pIC50,[12]; w/ 1 mM Mg^2+,5.10
same,pIC50,[12]; w/o Mg^2+,5.51
same,% inhibition,[13]; w/ 1 mM Mg^2+,97 ± 0.6 (7)^¥ %
same,% inhibition,[13]; w/o Mg^2+,95 ± 1.8 (12) %
same,increased potency in 1 mM Mg^2+ compared to the same variant in the absence of Mg^2+,[13]; GluN1-G620R,2.5 fold
same,enhanced potency in comparison to WT NMDARs,"[13]; GluN1-G620R, absence of Mg^2+",2.2 fold
same,pIC50,[13]; w/ 1 mM Mg^2+,6.00
same,pIC50,[13]; w/o Mg^2+,5.60
same,% inhibition,[14]; w/ 1 mM Mg^2+,89 ± 2.8% (9)
same,% inhibition,[14]; w/o Mg^2+,80 ± 3.6% (12)^¥
same,reduced potency (less potent) vs WT,"[14]; GluN2B-W607C, absence of Mg^2+",~ 3 fold
same,pIC50,[14]; w/ 1 mM Mg^2+,4.96
same,pIC50,[14]; w/o Mg^2+,4.80
